Laboratory results: patent US10781183B2, “Small molecule inducers of reactive oxygen species and inhibitors of mitochondrial activity” (The Regents of the University of Michigan, priority 2016, dated 2020)
Counter-ions that a name gives are not always drawn. Like-named read-outs stand apart in the source and are kept apart here.

Columns and labels:
MiaPaCa-2 cells [1] = test: ROS detection assay (H2DCFDA probe); type: cell-based; conditions: for ROS induction compared with lead compound QD232: MiaPaCa-2, 24 h treatment, 10 μM (FIG. 1C); for ROS induction after NAC pretreatment: NAC 5 mM for 30 min pretreatment (FIG. 3B)
Method: To quantify ROS induction by redox modulators, a high throughput ROS assay in 384-well plates using H2DCFDA as the ROS detection probe was developed (FIG. 1A).
Cells were detached by 0.05% trypsin-EDTA, neutralized, centrifuged (1200 rpm, 5 min) and resuspended in cell culture media. Suspension were then treated with 20 μM cell permeable H2DCFDA for 30 min at 37° C. Cells were then centrifuged (1200 rpm, 5 min) and washed with cell culture media to remove excess probe. After washing, cells were placed in black-wall 384-well plate at 20,000 cells/well, incubated for 30 min and treated by compounds at designated conditions. Fluorescent signal were then read at 493 nm/523 nm on BioTek H1 plate reader for ROS detection.

Panc-1 cells = test: MTT cytotoxicity assay, Panc-1; type: cell-based; conditions: Homo sapiens, three independent experiments
Method: (§1) MiaPaCa-2, Panc-1 and BxPC-3 pancreatic cancer cell lines were obtained from the ATCC. Normal pancreatic cells HPDE and HPNE were kindly provided (Translational Oncology Program, University of […], Ann Arbor, Mich.). Gemcitabine resistant cell line MiaPaCa-2-GR (gemcitabine resistant) was kindly provided (Department of Pathology, Wayne State University, Detroit, Mich.). All cell lines were cultured as monolayer and maintained in RPMI1640 supplemented with 10% fetal bovine serum (FBS) in a humidified atmosphere with 5% CO2 at 37° C. MiaPaCa-2-GR culture was supplemented with 200 nM gemcitabine.
(§2) Cytotoxicity of compounds was evaluated with 3-(4,5-dimethylthiazol-2-yl)-2,5-diphenyltetrazolium bromide (MTT) assay. Cells were placed in 96-well plate at 3000-8000 cells/well. After overnight attachment, compounds were added to the wells at sequential dilutions (30 nM-10 μM for most cell lines). After 72 h treatment, MTT was added into the media to a final concentration of 300 μg/mL. Cells were incubated for 3 h at 37° C., and the insoluble formazan converted by viable cells were dissolved in 150 μL of DMSO. Absorbance at 570 nm was read by microplate reader (Molecular devices, Sunnyvale, Calif.), and inhibition of cell proliferation was calculated using the following formula: Inhibition of cell proliferation (%)=(1−ODtreatment/ODcontrol)×100%

MiaPaCa-2 cells [2] = test: MTT cytotoxicity assay, MiaPaCa-2; type: cell-based; conditions: MTT assay; for IC50: Homo sapiens, Mean ± SD, three independent experiments; for cytotoxicity in presence of NAC: NAC 5 mM (FIG. 3C)
Method: as §1, §2

BxPC-3 cells = test: MTT cytotoxicity assay, BxPC-3; type: cell-based; conditions: Homo sapiens, three independent experiments
Method: as §1, §2

[3] = tested on: mtDNA content in MiaPaCa-2 cells; test: Measurement of mtDNA content by qPCR; type: cell-based; conditions: MiaPaCa-2, 6 h; 12S rRNA vs genomic 18S rRNA (FIG. 11B)
Method: To assess mtDNA content, genomic DNA was isolated with QIAamp® DNA mini kit (Qiagen, Germantown, Md.) from MiaPaCa-2 cells. The mtDNA content was evaluated by co-amplifying a DNA fragment encoding mitochondrial 12S rRNA (forward primer: 5′-[…]-3′; reverse primer: 5′-TGCGCTTACTTTGTAG CCTTCAT-3′) and a DNA fragment encoding the nuclear 18S rRNA (forward primer: 5′-CCCTGCC CTTTGTACACACC-3′; reverse primer: 5′-GATCCGAGGGCCTCACTA-3′). (Vadrot et al., 2012) Real-time qPCR was performed on Viia7 cycler (Applied Biosystems). Amplifications were monitored and analyzed by measuring the intercalation of the fluorescent dye from Fast SYBR® Green Master Mix (Applied Biosystems). Relative mtDNA contents were calculated using 18S rRNA as gene reference.

MiaPaCa-2 xenograft = MiaPaCa-2 xenograft studies; type: in vivo, NOD/SCID mice; conditions: QD325 5 mg/kg five times a week; gemcitabine 15 mg/kg once a week; control 1503±189 mm^3
Method: MiaPaCa-2 cells (2.0×10^6) in a 100 μL suspension of RPMI1640 was injected subcutaneously into dorsal flank of 6-week NOD/SCID mice. Tumor size was monitored twice a week through caliper measurement using the following equation: V=d^2×D/2, where d represents width and D represents length of the tumor. In study 1, mice were randomly grouped (n=5 per group) when average tumor size reached 65 mm^3. Daily treatment was given at five days on two days off cycles. QD325 was given at 5 mg/kg in 100 μL vehicle (5% DMSO, 60% Propylene glycol, 35% Saline) by intraperitoneal injection. […] Unpaired t test was performed for data analysis and p<0.05 was considered significant. […] Procedures for study 2 with gemcitabine treatment are detailed in supplemental information.
On necropsy, tumors, hearts, kidneys, livers, lungs, spleens and pancreases were collected, fixed in 10% neutral buffered formalin, embedded in paraffin, and sectioned. Sections ([…]) were stained with hematoxylin and eosin to facilitate histologic examination. For Ki67 expression level, immunohistochemistry staining was performed on sections with Ki67 antibody. Embedding, sectioning and staining of samples were performed by ULAM pathology core for animal research at the University of Michigan. Representative images were taken on Olympus IX83 microscope with 20× magnification.

pancreatic cancer = conditions: cited from earlier work
MiaPaCa-2 cells [4] = test: Bru-seq analysis for nascent RNA synthesis; type: cell-based; conditions: Bru-seq
Description: A bromouridine labeled RNA sequencing (Bru-seq) technique was used to better characterize molecular mechanisms of these novel agents. Bru-seq is able to capture real-time synthesis of the nascent RNA, so as to provide information on global gene transcription without interference by RNA stability or biased gene selection (Paulsen et al., 2014, Paulsen et al., 2013). […] Profiling of all genes with >1.5-fold change in expression upon treatment of QD232 or QD325 identified NRF2-mediated oxidative stress response and unfolded protein response (UPR) as key pathways implicated in drug action (FIG. 8A).
Bru-seq analysis was performed as previously reported (Paulsen et al., 2014). Briefly, 4×10^6 MiaPaCa-2 cells were placed in 10 cm dishes on Day 1. On Day 2, cells were treated with DMSO, QD232 or QD325 for 4 h. Bromouridine was added into the media to label newly synthesized nascent RNA in the last 30 min of treatment to a final concentration of 2 mM. Cells were then collected in TRIZOL and total RNA was isolated. Bromouridine containing RNA population was further isolated and sent for sequencing. Sequencing reads were mapped to the HG19 reference genome. Pre-ranked gene lists were generated for each treatment through ranking genes by fold changes in gene synthesis levels compared with control, and analyzed with GSEA (Broad Institute, MA) (Subramanian et al., 2005, Mootha et al., 2003)

[5] = PANC-1, 72 h, Table 1, 72 h, Mean ± SD
[6] = PANC-1, Table 2, Mean ± SD, read-out: IC 50 Panc-1
[7] = MIA PaCa-2, 72 h, Table 1, 72 h
[8] = MIA PaCa-2, Table 2, read-out: IC 50 MiaPaCa-2
[9] = BXPC-3, 72 h, Table 1, 72 h, Mean ± SD
[10] = BXPC-3, Table 2, Mean ± SD, read-out: IC 50 BxPC-3
[11] = metastatic pancreatic cancer, gemcitabine group vs FOLFIRINOX group (Conroy et al., 2011)

Compound | melting point | ROS induction compared with lead compound QD232 (MiaPaCa-2 cells [1]) | accumulation of ROS (MiaPaCa-2 cells [1]; MiaPaCa-2, 10, 3.3 or 1.1 μM (FIG. 3A)) | ROS accumulation at 10 and 3.3 μM (MiaPaCa-2 cells [1]; MiaPaCa-2, 10 and 3.3 μM) | ROS induction after NAC pretreatment (MiaPaCa-2 cells [1]; MiaPaCa-2) | IC50 (Panc-1 cells; [5]) | IC50 (Panc-1 cells; [6]) | IC50 (MiaPaCa-2 cells [2]; [7]) | IC50 (MiaPaCa-2 cells [2]; [8]) | cytotoxicity in presence of NAC (MiaPaCa-2 cells [2]; 72 h) | IC50 (BxPC-3 cells; [9]) | IC50 (BxPC-3 cells; [10]) | mtDNA content 6 hours after treatment [3] | average tumor size at the end of the 48-day treatment period (MiaPaCa-2 xenograft) | median overall survival (pancreatic cancer; [11]) | median overall survival (pancreatic cancer; pancreatic cancer patients, addition of nab-paclitaxel to gemcitabine (Von Hoff et al., 2013)) | transcription of mtDNA from mitochondrial promoters HSP2 and LSP on D-loop (MiaPaCa-2 cells [4])
OO [H2O2, reference compound] | – | – | – | – | blocked | – | – | – | – | decreased cytotoxicity | – | – | small but significant decrease in mtDNA content | – | – | – | –
Nc1ccn([C@@H]2O[C@H](CO)[C@@H](O)C2(F)F)c(=O)n1 [Gemcitabine, 2′-deoxy-2′, 2′-difluorocytidine monohydrochloride (b-isomer), reference compound] | – | – | – | – | – | 200 ± 100 nM | – | 110 ± 70 nM | – | – | 50 ± 20 nM | – | – | 387±74 mm^3 | 6.8 months | 6.7 months | –
FOLFIRINOX | – | – | – | – | – | – | – | – | – | – | – | – | – | – | 11.1 months | – | –
CC[C@@]1(O)C(=O)OCc2c1cc1n(c2=O)Cc2cc3ccccc3nc2-1 [camptothecin, reference compound] | – | – | – | – | – | – | – | – | – | – | – | – | – | – | – | – | no such effect was observed

The next lines start with results.

melting point | Compound | ROS induction compared with lead compound QD232 (MiaPaCa-2 cells [1]) | accumulation of ROS (MiaPaCa-2 cells [1]; MiaPaCa-2, 10, 3.3 or 1.1 μM (FIG. 3A)) | ROS accumulation at 10 and 3.3 μM (MiaPaCa-2 cells [1]; MiaPaCa-2, 10 and 3.3 μM) | ROS induction after NAC pretreatment (MiaPaCa-2 cells [1]; MiaPaCa-2) | IC50 (Panc-1 cells; [5]) | IC50 (Panc-1 cells; [6]) | IC50 (MiaPaCa-2 cells [2]; [7]) | IC50 (MiaPaCa-2 cells [2]; [8]) | cytotoxicity in presence of NAC (MiaPaCa-2 cells [2]; 72 h) | IC50 (BxPC-3 cells; [9]) | IC50 (BxPC-3 cells; [10]) | mtDNA content 6 hours after treatment [3] | average tumor size at the end of the 48-day treatment period (MiaPaCa-2 xenograft) | median overall survival (pancreatic cancer; [11]) | median overall survival (pancreatic cancer; pancreatic cancer patients, addition of nab-paclitaxel to gemcitabine (Von Hoff et al., 2013)) | transcription of mtDNA from mitochondrial promoters HSP2 and LSP on D-loop (MiaPaCa-2 cells [4])
161 to 162 °C | COc1cc(NC2=CC(=O)c3ncncc3C2=O)cc(OC)c1OC [QD326, 6-((3,4,5-trimethoxyphenyl)amino)quinazoline-5,8-dione] | significantly higher ROS induction than the lead compound QD232 | time- and dose-dependent accumulation of ROS | rapid and high ROS accumulation | inhibited | 800 ± 100 nM | 800 ± 100 nM | 1500 ± 100 nM | 1500 ± 100 nM | decreased cytotoxicity | 1600 ± 300 nM | 1600 ± 300 nM | – | – | – | – | –
232 °C | CCc1ccc(-c2ccc(NC3=CC(=O)c4ncncc4C3=O)cc2)cc1 [QD335, 6-((4′-ethyl-[1,1′-biphenyl]-4-yl)amino)quinazoline-5,8-dione] | significantly higher ROS induction than the lead compound QD232 | – | – | – | 1200 ± 100 nM | 1200 ± 100 nM | 2000 ± 100 nM | 2000 ± 100 nM | – | 3100 ± 700 nM | 3100 ± 700 nM | – | – | – | – | –
> 320 °C | Nc1ccc(-c2ccc(NC3=CC(=O)c4ncncc4C3=O)cc2)cc1 [QD337, 6-((4′-amino-[1,1′-biphenyl]-4-yl)amino)quinazoline-5,8-dione] | – | – | – | – | 3700 ± 100 nM | 3700 ± 100 nM | 2500 ± 200 nM | 2500 ± 200 nM | – | 3500 ± 600 nM | 3500 ± 600 nM | – | – | – | – | –
142 °C | COc1cccc(NC2=CC(=O)c3ncncc3C2=O)c1 [QD353, 6-((3-methoxyphenyl)amino)quinazoline-5,8-dione] | – | – | – | – | 600 ± 100 nM | 600 ± 100 nM | 1800 ± 300 nM | 1800 ± 300 nM | – | 1800 ± 100 nM | 1800 ± 100 nM | – | – | – | – | –
238 °C | COc1ccc(NC2=CC(=O)c3ncncc3C2=O)cc1 [QD354, 6-((4-methoxyphenyl)amino)quinazoline-5,8-dione] | – | – | – | – | 800 ± 200 nM | 800 ± 200 nM | 1900 ± 200 nM | 1900 ± 200 nM | – | 1700 ± 200 nM | 1700 ± 200 nM | – | – | – | – | –
169 to 171 °C | O=C1C(Nc2ccc(Oc3ccccc3)cc2)=CC(=O)c2ncncc21 [QD324, 6-((4-phenoxyphenyl)amino)quinazoline-5,8-dione] | – | – | – | – | 1800 ± 200 nM | 1800 ± 200 nM | 3700 ± 700 nM | 3700 ± 700 nM | – | 3600 ± 400 nM | 3600 ± 400 nM | – | – | – | – | –
203 °C | O=C1C(NCc2ccc(F)cc2)=CC(=O)c2ncncc21 [QD356, 6-((4-fluorobenzyl)amino)quinazoline-5,8-dione] | – | – | – | – | 1000 ± 100 nM | 1000 ± 100 nM | 1700 ± 200 nM | 1700 ± 200 nM | – | 1400 ± 200 nM | 1400 ± 200 nM | – | – | – | – | –
270 to 272 °C | COc1ccc(-c2ccc(NC3=CC(=O)c4ncncc4C3=O)cc2)cc1 [QD336, 6-((4′-methoxy[1,1′-biphenyl]-4-yl)amino)quinazoline-5,8-dione] | – | – | – | – | 2300 ± 300 nM | 2300 ± 300 nM | 2100 ± 500 nM | 2100 ± 500 nM | – | 3500 ± 500 nM | 3500 ± 500 nM | – | – | – | – | –
